{"source": "patent US20220380317A1", "about": "“COMPOUNDS HAVING ANTIMALARIAL ACTIVITY” (NANYANG TECHNOLOGICAL UNIVERSITY, priority 2019, published 2022)", "key": {"P. falciparum": {"system": "P. falciparum", "test": "in vitro P. falciparum growth inhibition / dose response assay (Hoechst 33342 FACS read out)", "format": "cell-based, Plasmodium falciparum", "conditions": "for IC50: in vitro, FIG. 7B, read-out: affinity (IC50 values, in vitro anti-parasitic activity)", "procedure": "For the in vitro P. falciparum culture, P. falciparum 3D7, Dd2, K1, T994, W2, and W2mef cell lines were obtained from Malaria Research and Reference Reagent Resource Center (MR4), BEI Resources. Artemisinin-resistant and -sensitive parasite field isolates from Ratanakiri, Cambodia were obtained by request from the Tracking Resistance to Artemisinin Collaboration (TRAC). In vitro parasite culture was performed as described by Maier and Rug (Methods Mol Bio 2013; 923:3-15). Briefly, cultures were maintained with RPMI medium supplemented with Albumax II; […] RPMI-1640 (Gibco, Life Technologies), 2.5 g/L Albumax II (Gibco, Life Technologies), 2.3 g/L Sodium Bicarbonate (Sigma-Aldrich), 50 mg/L Hypoxanthine (Sigma-Aldrich), 10 mg/L Gentamicin Sulphate (Gibco, Life Technologies), in 2-3% haematocrit human RBCs collected via patient donation at National University Hospital, Singapore. Cultures were maintained with a special mixed gas of 3% O2, 5% CO2, balanced with N2 (SOXAL, Air Liquide, Singapore). For cultures grown in plate format, plates were kept in a sealed bag filled with mixed gas. Parasitemia and parasite stages were checked by microscopy of blood smears fixed in Methanol (Merck), stained in Giemsa (Sigma-Aldrich) in 1× Tris-Base, Acetic Acid, EDTA (TAE) buffer (analytical grade, Fischer US).\nSynchronization of ring stage parasites (0-20 hour IDC) was done by incubating packed RBC culture with 5% (w/v) D-Sorbitol (Sigma-Aldrich) at 37° C. for 20 minutes. Cultures were washed with incomplete RPMI (iRPMI), 2,200 rpm, 3 minutes, brake 1 to remove sorbitol and cell debris. Late stage parasites (30-48 hour IDC) were isolated using a 68% Percoll (MP Biomedicals) gradient prepared with 1× Phosphate Buffer Saline (PBS) and iRPMI. Packed parasite cultures were diluted with iRPMI 1:5, then layer carefully atop of the 68% Percoll gradient in a 15 mL Falcon tube. Tubes were spun at 2,200 rpm for 20 minutes, brake 0. […]\nIn a mid-throughput compound library screen, compounds were screened for antiparasitic activity by growth rate over a duration of 60 hrs (slightly over one IDC). ˜1% parasitemia of 0-3hpi ring stage culture in 2% haematocrit were treated with 10 μM of library compound (0.1% final DMSO concentration), and seeded into 96well flat bottom plates. […] After 60 hr of treatment (to allow ring stages to develop a more defined morphology), taken for Fluorescent-activated Cell Sorting (FACS) read out.\nAssay read out was done by staining with Hoechst 33342 (Excitation 350 nm, Emission 461 nm; Molecular Probes, Life Technologies), a cell permeable DNA staining dye. […] Cells were read via a High Throughput Sampler (HTS)-coupled FACS machine (BD Biosciences) in the UV laser excitation channel (Excitation 355 nm). […]"}, "P. berghei [1]": {"system": "P. berghei", "test": "in vivo four-day suppression test", "design": "species or system Balb/c mice", "conditions": "for dose required to achieve >95% killing: once daily Days 1 to 4, parasitemia measured on Day 5", "procedure": "Four-week-old Balb/c mice were challenged with […] P. berghei parasites intravenously on Day 0. […] Parasitemia was measured on Day 5, and the following formula was used to measure in vivo activity;"}, "[2]": {"molecular_target": "T1, Falcilysin (FLN, PlasmoDB geneID: PF3D7_1360800) (Plasmodium falciparum, UniProt Q76NL8)", "T1 construct": "gift from Zbynek Bozdech, School of Biological Sciences, NTU", "T1 sequence (Q76NL8 whole entry)": "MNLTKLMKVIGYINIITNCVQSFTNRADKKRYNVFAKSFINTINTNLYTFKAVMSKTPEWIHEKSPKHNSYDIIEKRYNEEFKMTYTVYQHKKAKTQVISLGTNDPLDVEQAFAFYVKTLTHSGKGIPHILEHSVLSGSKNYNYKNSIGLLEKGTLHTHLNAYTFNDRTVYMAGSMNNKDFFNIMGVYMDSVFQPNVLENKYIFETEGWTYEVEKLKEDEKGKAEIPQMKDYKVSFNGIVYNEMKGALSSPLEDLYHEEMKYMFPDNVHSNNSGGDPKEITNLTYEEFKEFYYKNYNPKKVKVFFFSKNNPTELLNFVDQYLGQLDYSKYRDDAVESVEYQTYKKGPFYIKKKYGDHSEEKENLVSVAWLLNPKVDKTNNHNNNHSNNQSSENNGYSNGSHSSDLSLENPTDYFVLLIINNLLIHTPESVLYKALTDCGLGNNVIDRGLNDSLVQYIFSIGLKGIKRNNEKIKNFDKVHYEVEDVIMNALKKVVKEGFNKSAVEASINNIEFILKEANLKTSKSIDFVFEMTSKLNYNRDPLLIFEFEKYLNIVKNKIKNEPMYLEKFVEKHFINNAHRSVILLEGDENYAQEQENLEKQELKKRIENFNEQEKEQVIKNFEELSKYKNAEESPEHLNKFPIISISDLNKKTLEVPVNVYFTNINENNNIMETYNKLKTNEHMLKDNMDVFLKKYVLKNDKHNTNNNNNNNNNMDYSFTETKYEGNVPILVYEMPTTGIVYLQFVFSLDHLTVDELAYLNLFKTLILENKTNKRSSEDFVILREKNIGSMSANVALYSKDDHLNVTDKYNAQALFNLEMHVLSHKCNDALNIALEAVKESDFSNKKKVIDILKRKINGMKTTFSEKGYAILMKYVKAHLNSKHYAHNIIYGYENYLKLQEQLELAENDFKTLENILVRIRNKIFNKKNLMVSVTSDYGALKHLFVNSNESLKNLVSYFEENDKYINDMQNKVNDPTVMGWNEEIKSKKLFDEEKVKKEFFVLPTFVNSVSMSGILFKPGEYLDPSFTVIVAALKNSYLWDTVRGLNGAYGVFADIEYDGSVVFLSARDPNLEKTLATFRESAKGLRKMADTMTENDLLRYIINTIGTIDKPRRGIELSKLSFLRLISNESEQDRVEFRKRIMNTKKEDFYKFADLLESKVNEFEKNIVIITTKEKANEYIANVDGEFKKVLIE", "test": "cell-free enzymatic inhibition assay with recombinant FLN and fluorescent-quencher peptide substrate", "format": "biochemical", "conditions": "1 mM, fluorescence at 490 nm over 7 min", "procedure": "In order to validate the results obtained from the CETSA screen, a cell-free enzymatic inhibition assay using recombinant-FLN and a fluorescent-quencher tagged 10-peptide substrate of FLN was employed. Recombinant FLN and the Dabcyl-[…] (SEQ ID NO:3)-Edans fluorescent-quencher peptides were a gift from Zbynek Bozdech of School of Biological Sciences, NTU. Briefly, recombinant FLN at a final concentration of 0.3 μg/ml in assay buffer (50 mM Bis-tris, pH 7.2) was prepared. […] Just prior to the read out, recombinant FLN in assay buffer was added. VO was determined by monitoring fluorescence (Aex=340 nm, Aem=490) over 7 min on a Tecan Infinite M200 Pro plate reader. Assays were done with two technical replicates each. Data of three biological replicates were averaged and plot on Microsoft excel to compare the slope of the fluorescence signal."}, "P. berghei [3]": {"system": "P. berghei", "test": "in vivo growth suppression test in P. berghei BALB/c mice model", "conditions": "30 mg/kg intraperitoneally once daily for four days", "procedure": "In a next step, the compound's in vitro activity was validated in vivo in a P. berghei BALB/c mice model. A growth suppression test was done by intraperitoneally infecting 4-week old Balb/c mice with GFP-expressing parasites, and allowing the parasitemia to rise to 3-4%. Subsequently, different doses of the compound were administered intraperitoneally once daily over four days.\nTail snips were done once daily to obtain blood samples for the measurement of parasitemia by FACS."}, "[4]": {"system": "lung, kidney, and liver epithelial cells", "test": "toxicity in epithelial cells", "format": "cell-based", "conditions": "at 1000-folds in excess of the therapeutic dose"}}, "note": "Read-outs that look alike come from different tables or passages of the source.", "data": [{"compound": "C1=N[C@@H](c2ccccc2)[C@H](c2ccccc2)N1Cc1cccc(CN2C=N[C@@H](c3ccccc3)[C@@H]2c2ccccc2)c1", "note": "[imidazole variant, (4S,5S)-1-[(m-{[(4S,5S)-4,5-Diphenyl-1-imidazolyl]methyl}phenyl)methyl]-4,5-diphenylimidazole]", "values": [{"measurement": "IC50", "setting": "P. falciparum", "result": 4690, "unit": "nM"}]}, {"compound": "1-({3-[(4,5-Diphenyl-1-imidazolinyl)methyl]-5-methoxyphenyl}methyl)-4,5-diphenylimidazoline [SAR 13]", "values": [{"measurement": "in vitro potency compared with A1", "setting": "P. falciparum", "result": "more potent"}, {"measurement": "in vivo activity in 4-day suppressive test", "setting": "P. berghei [1]; 20 mg/kg", "result": "highest activity"}, {"measurement": "dose required to achieve >95% killing", "setting": "P. berghei [1]", "result": 20, "unit": "mg/kg"}]}, {"compound": "C[C@@H]1C[C@@H]([C@H](O)CC2CC(=O)NC(=O)C2)C(=O)[C@@H](C)C1", "note": "[cyclohexamine]", "values": [{"measurement": "proteolytic activity of FLN", "setting": "[2]", "result": "No inhibition of proteolytic activity"}]}, {"compound": "C[C@@H]1CC[C@H]2[C@@H](C)C(=O)O[C@@H]3O[C@@]4(C)CC[C@@H]1[C@]32OO4", "note": "[artemisinin]", "values": [{"measurement": "reduction of parasitemia", "setting": "P. berghei [3]", "result": "unable to further reduce parasitemia beyond day 3"}]}, {"compound": "C1=NC(c2ccccc2)C(c2ccccc2)N1Cc1cccc(CN2C=NC(c3ccccc3)C2c2ccccc2)c1", "note": "(centres unmarked) [A1, 1-({m-[(4,5-Diphenyl-1-imidazolinyl)methyl]phenyl}methyl)-4,5-diphenylimidazoline]", "values": [{"measurement": "IC50", "setting": "P. falciparum; Plasmodium falciparum", "result": 120, "unit": "nM"}, {"measurement": "dose required to achieve >95% killing", "setting": "P. berghei [1]", "result": 30, "unit": "mg/kg"}, {"measurement": "toxicity", "setting": "[4]", "result": "Toxicity was not observed"}]}, {"compound": "1-({6-[(4,5-Diphenyl-1-imidazolinyl)methyl]-2-pyridyl}methyl)-4,5-diphenylimidazoline [SAR 14]", "values": [{"measurement": "in vitro potency compared with A1", "setting": "P. falciparum", "result": "more potent"}, {"measurement": "dose required to achieve >95% killing", "setting": "P. berghei [1]", "result": 30, "unit": "mg/kg"}]}]}
